Values belong to the compound of their own block, whether it stands above or below them.
Tests used:
[1] = Reductase (reducing) activity of peptides, fluorescent FITC-peptide assay; assay type: biochemical; conditions: fluorescent FITC-peptide disulfide reduction; dithiothreitol control = 100%
Method: The reductase activity of the peptides is determined using a fluorescent described in Tomazzolli et al. (2006) Anal. Biochem. 350, 105-112. Two peptides with a FITC label become self-quenching when they covalently attached to each other via a disulfide bridge. Upon reduction by a peptide in accordance with the present invention, the reduced individual peptides become fluorescent again.
Control experiments were performed with dithiothreitol (100% reducing activity) and water (100% reducing activity).

[2] = test system: CD4+ T cell lines from T1D patients; assay: FasL release by cytolytic CD4+ T cell lines; assay type: cell-based, human; conditions: for FasL expression (pg/ml) Stimulation 1: day 11 of stimulation 1; for FasL expression (pg/ml) Stimulation 1 / FasL expression (pg/ml) Stimulation 2 / FasL expression (pg/ml) Stimulation 3 / FasL expression (pg/ml) Stimulation 4: restimulation with corresponding peptide presented by autologous B cells; for FasL expression (pg/ml) Stimulation 1 / FasL expression (pg/ml) Stimulation 2: supernatant after 24 h; for FasL expression (pg/ml) Stimulation 2: day 11 of stimulation 2; for FasL expression (pg/ml) Stimulation 3: day 11 of stimulation 3; for FasL expression (pg/ml) Stimulation 3 / FasL expression (pg/ml) Stimulation 4: supernatant after 72 h; for FasL expression (pg/ml) Stimulation 4: day 11 of stimulation 4
Method: The T cell line originally generated with p17 001 as described in example 3 above was divided and stimulated with peptide P17 003 or P17 001 over 4 successive in vitro stimulations using autologous LCL B cell line as APC. At day 11 of every stimulation (total of 4), cells were tested for FasL after restimulation with their corresponding peptide presented by autologous B cells. Supernatants were collected after 24 h (stimulation 1 and 2) or 72 h (stimulation 3 and 4) of co-culture.

[3] = test system: CD4+ T cell line from a T1D patient (T1D07); assay: Interferon gamma release by cytolytic CD4+ T cell line; assay type: cell-based, human; conditions: for IFN-gamma (pg/ml), Stimulus 1: T cell line primed with p17-001, after 12 stimulations, co-culture with autologous LCL B cells loaded (2 μM) with peptide, supernatant after 24 hours, multiplex assay
Method: Interferon gamma is an important marker to characterise cytolytic CD4+ T cells. A specific CD4+ T cell line was obtained by priming and stimulating naïve CD4+ T cells from a T1D patient (T1D07) with peptide p17-001. After 12 stimulations, cells were co-cultured with autologous LCL B cells loaded (2 μM) with peptide p17-001 or p17-003. After 24 hours, supernatants were collected and IFN-gamma was measured by multiplex assay (see table 1 below).

[4] = test system: PBMCs from T1D-patient T1D018 (IL5 positive fraction); assay: Cytokine release in cell lines generated from T1D-patient PBMCs (MACSplex Cytokine 12 kit); assay type: cell-based, human; conditions: supernatant after 24 h, end of stimulation 10; FIG. 2
Method: (§1) PBMCs from T1D-patient T1D018 were stimulated in vitro either with P17001 peptide or P17003 peptide. These two populations specifically release […] after antigenic activation. After 6 stimulation cycles with the peptides, both cell lines were enriched for IL-5 producing cells with cytokine capture beads. The two populations of Interleukin-5 negative cells were used as controls.
(§2) These four populations are then tested for specific release of sFasL, Granzyme B and cytokines after stimulation with their cognate peptide (P17-001 or P17-003). Supernatants are collected after 24 h of culture and sFasL and Granzyme B are measured by ELISA (sFasL: Diaclone 851730010; Granzyme B: eBioscience BMS2027) and cytokines by MACSplex Cytokine 12 kit (Miltenyi, 130-099-169).
To determine if the in vitro cultured cells from T1D donors are specific for peptide P17001 or P17003, the release of cytokines, a hallmark for cell activation upon peptide stimulation, was investigated using MACSplex Cytokine 12 kit (Miltenyi, 130-099-169). Supernatant was collected after 24 h from the culture of T1D donor PBMCs in the absence or presence of the peptide. […] Specificity test was performed at the end of stimulation 10 (resting day). The result is presented as the difference in concentration of each cytokine in the condition without and with peptide.

[5] = test system: PBMCs from T1D-patient T1D018 (IL5 positive cells); assay: sFasL release in cell lines generated from T1D-patient PBMCs; assay type: cell-based, human; conditions: IL5 positive cells after 6 stimulation cycles, restimulated 24 h with cognate peptide; ELISA; p<0,0001
Method: FIG. 1: Release of sFasL in cell lines generated with p17-003 or p17-001. Cells specific for p17-003 or p17-001 (IL5 positive cells; black histograms) were restimulated for 24 h with antigen presenting cells loaded with peptides p17-003 or p17-001, depending of the peptide used for their generation, and supernatant collected after 24 h of co-culture. IL-5 negative cells are for control PBMC populations (open histograms). Results represent mean+/−SD of sFasL concentration corrected per cell number.
as §1, §2

Compound: HCPYC VR SLQPLALEGSLQKRG (HCPYCVRSLQPLALEGSLQKRG; peptide with redox motif and insulin T cell epitope) [P17 001, reference compound]
reducing activity [1]: 68%
FasL expression (pg/ml) Stimulation 1 [2]: 1335 ± 23.1 pg/mL
FasL expression (pg/ml) Stimulation 2 [2]: 1144 ± 15.4 pg/mL
FasL expression (pg/ml) Stimulation 3 [2]: 1227 ± 49.1 pg/mL
FasL expression (pg/ml) Stimulation 4 [2]: 1008 ± 102 pg/mL
IFN-gamma (pg/ml), Stimulus 1 [3]: 11.1 ± 0.8 pg/mL

Compound: HCPYCSLQPLALEGSLQKRG (peptide with redox motif and insulin T cell epitope) [P17 003]
eliciting peptide specific cells (cytokine release upon peptide stimulation) compared with P17001 [4]: more potent
sFasL release compared with cells generated by peptide p17-001 [5]: 4.5 fold
reducing activity [1]: 65%
FasL expression (pg/ml) Stimulation 1 [2]: 1795 ± 42.4 pg/mL
FasL expression (pg/ml) Stimulation 2 [2]: 1812 ± 34.7 pg/mL
FasL expression (pg/ml) Stimulation 3 [2]: 2063 ± 166 pg/mL
FasL expression (pg/ml) Stimulation 4 [2]: 1526 ± 102 pg/mL
FasL (sFasL) expression compared to P17-001 ([2]; each of the four stimulations): significantly higher
IFN-gamma (pg/ml), Stimulus 1 [3]: 29.7 ± 14.1 pg/mL
IFN-gamma produced after stimulation with p17 003 compared to p17 001 ([3]; ratio of Table 1 values): about 3 times

reducing activity [1]: 100%
Compound: O[C@H](CS)[C@H](O)CS (racemic) [dithiothreitol]

Source: patent publication US12583891B2, “Peptides and methods for the treatment of diabetes” (IMCYSE SA, priority 2017, dated 2026)
